pIC50: −log10 of the molar value. Read-outs that look alike come from different tables or passages of the source.
Biological target: Tyk2 (Homo sapiens (Human), UniProt P29597)
Test: pSTAT4 Cell Assay (MSD, NK92 cells)
Format: cell-based
Experimental: The inhibitory potency of compounds of the disclosure against the Tyk2 kinase activity on STAT4 was evaluated using an MSD-platform plate-based assay format. NK92 cells natively expressing STAT4 and Tyk2 were serum-starved to reduce background phosphorylation levels, then cells were treated compounds for 1 hr with a 10-point four-fold dilution series starting at 10 μM. Cells were then stimulated with 30 ng/mL […] for 15 minutes. […] The data were normalized and the percent activity versus log concentration of compound were fitted with a 4-parameter logistic model to generate to generate IC50 curves.

Tyk2, sequence (P29597 whole entry): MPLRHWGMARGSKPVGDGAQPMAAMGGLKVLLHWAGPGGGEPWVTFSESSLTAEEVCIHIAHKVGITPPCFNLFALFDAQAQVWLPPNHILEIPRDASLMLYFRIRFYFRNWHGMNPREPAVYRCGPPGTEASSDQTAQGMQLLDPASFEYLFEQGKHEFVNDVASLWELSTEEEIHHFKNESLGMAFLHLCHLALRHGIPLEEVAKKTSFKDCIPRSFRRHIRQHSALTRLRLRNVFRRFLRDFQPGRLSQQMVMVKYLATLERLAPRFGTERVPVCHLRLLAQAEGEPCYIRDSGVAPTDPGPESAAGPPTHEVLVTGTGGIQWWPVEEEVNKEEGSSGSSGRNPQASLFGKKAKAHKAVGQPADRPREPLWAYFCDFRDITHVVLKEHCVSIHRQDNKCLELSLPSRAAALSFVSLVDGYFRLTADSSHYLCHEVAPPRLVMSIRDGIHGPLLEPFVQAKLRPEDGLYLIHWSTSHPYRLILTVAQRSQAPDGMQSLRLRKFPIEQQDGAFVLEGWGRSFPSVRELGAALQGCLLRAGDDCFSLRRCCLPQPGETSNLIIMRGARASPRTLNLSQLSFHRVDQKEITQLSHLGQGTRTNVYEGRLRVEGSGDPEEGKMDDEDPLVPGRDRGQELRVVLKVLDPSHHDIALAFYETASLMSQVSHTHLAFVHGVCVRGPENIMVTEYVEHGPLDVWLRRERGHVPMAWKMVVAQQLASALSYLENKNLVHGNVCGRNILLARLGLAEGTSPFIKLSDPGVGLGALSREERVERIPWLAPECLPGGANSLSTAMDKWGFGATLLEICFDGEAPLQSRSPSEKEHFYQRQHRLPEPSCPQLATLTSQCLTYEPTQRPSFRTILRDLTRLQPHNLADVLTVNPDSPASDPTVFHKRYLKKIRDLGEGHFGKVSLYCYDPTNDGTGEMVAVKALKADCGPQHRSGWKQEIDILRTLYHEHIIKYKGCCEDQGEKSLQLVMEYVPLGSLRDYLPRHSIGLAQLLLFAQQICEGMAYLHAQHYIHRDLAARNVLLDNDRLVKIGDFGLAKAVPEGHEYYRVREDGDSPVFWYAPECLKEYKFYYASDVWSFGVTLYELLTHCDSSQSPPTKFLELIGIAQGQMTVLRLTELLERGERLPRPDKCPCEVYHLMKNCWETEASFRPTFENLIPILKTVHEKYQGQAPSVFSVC

SMILES | pIC50 (MSD) | pIC50
CC(=O)Nc1cc(Nc2cc(C)nc(C(C)(F)F)n2)c(OCCOC(C)(C)C)cn1 [Example 113, N-(5-(2-(tert-butoxy)ethoxy)-4-((2-(1,1-difluoroethyl)-6-methylpyrimidin-4-yl)amino)pyridin-2-yl)acetamide] | ≥ 8.00 | –
CCc1cc(Nc2cc(NC(C)=O)ncc2-c2ncc(CN3CCCC3)cn2)nc(C(C)(F)F)n1 [Example 903, N-(4-((2-(1,1-difluoroethyl)-6-ethylpyrimidin-4-yl)amino)-5-(5-(pyrrolidin-1-ylmethyl)pyrimidin-2-yl)pyridin-2-yl)acetamide] | – | 6.00 to 7.00
COc1cnc(C(C)(F)F)nc1Nc1cc(NC(C)=O)ncc1C1CC1 [Example 143, N-(5-cyclopropyl-4-((2-(1,1-difluoroethyl)-5-methoxypyrimidin-4-yl)amino)pyridin-2-yl)acetamide] | ≤ 6.00 | –
CC(=O)Nc1cc(Nc2cc(C)nc(C(C)(F)F)n2)c(OCC2(C)CC2)cn1 [Example 58, N-(4-((2-(1,1-difluoroethyl)-6-methylpyrimidin-4-yl)amino)-5-((1-methylcyclopropyl)methoxy)pyridin-2-yl)acetamide] | 7.00 to 8.00 | –
CC(=O)Nc1cc(Nc2cc(C)nc(C(C)(F)F)n2)c(OCc2cc(C)no2)cn1 [Example 121, N-(4-((2-(1,1-difluoroethyl)-6-methylpyrimidin-4-yl)amino)-5-((3-methylisoxazol-5-yl)methoxy)pyridin-2-yl)acetamide] | 7.00 to 8.00 | –
CC(=O)Nc1cc(Nc2cc(C)nc(C34COC(C3)C4)n2)c(-c2cc3n(n2)CCN(C)C3)cn1 [Example 141, N-(4-((2-(2-oxabicyclo[2.1.1]hexan-4-yl)-6-methylpyrimidin-4-yl)amino)-5-(5-methyl-4,5,6,7-tetrahydropyrazolo[1,5-a]pyrazin-2-yl)pyridin-2-yl)acetamide] | ≥ 8.00 | –
CCCCOc1cnc(NC(C)=O)cc1Nc1cc(C)nc(C(C)(F)F)n1 [Example 105, N-(5-butoxy-4-((2-(1,1-difluoroethyl)-6-methylpyrimidin-4-yl)amino)pyridin-2-yl)acetamide] | ≥ 8.00 | –
CC(=O)Nc1cc(Nc2cc(C)nc(C(C)(F)F)n2)c(OCc2csnc2C)cn1 [Example 111, N-(4-((2-(1,1-difluoroethyl)-6-methylpyrimidin-4-yl)amino)-5-((3-methylisothiazol-4-yl)methoxy)pyridin-2-yl)acetamide] | 6.00 to 7.00 | –
CC(=O)Nc1cc(Nc2cc(C)nc(C(C)(F)F)n2)c(OCc2ncccn2)cn1 [Example 134, N-(4-((2-(1,1-difluoroethyl)-6-methylpyrimidin-4-yl)amino)-5-(pyrimidin-2-ylmethoxy)pyridin-2-yl)acetamide] | 6.00 to 7.00 | –
COCc1ccc(-c2cnc(NC(C)=O)cc2Nc2nc(C(C)(F)F)ncc2OC)nc1 [Example 589, N-(4′-((2-(1,1-difluoroethyl)-5-methoxypyrimidin-4-yl)amino)-5-(methoxymethyl)-[2,3′-bipyridin]-6′-yl)acetamide] | ≥ 8.00 | –
COCCCOc1cnc(NC(C)=O)cc1Nc1cc(C)nc(C(C)(F)F)n1 [Example 107, N-(4-((2-(1,1-difluoroethyl)-6-methylpyrimidin-4-yl)amino)-5-(3-methoxypropoxy)pyridin-2-yl)acetamide] | 7.00 to 8.00 | –
CCc1cc(Nc2cc(NC(C)=O)ncc2-c2ccc(CN3C[C@@H]4C[C@H]3CO4)cn2)nc(C(C)(F)F)n1 [Example 902, N-(5-(((1S,4S)-2-oxa-5-azabicyclo[2.2.1]heptan-5-yl)methyl)-4′-((2-(1,1-difluoroethyl)-6-ethylpyrimidin-4-yl)amino)-[2,3′-bipyridin]-6′-yl)acetamide] | – | ≥ 8.00
CC(=O)Nc1cc(Nc2cc(C)nc(C34COC(C3)C4)n2)c(-c2ccc(N3CCOCC3)cn2)cn1 [Example 574, N-(4′-((2-(2-oxabicyclo[2.1.1]hexan-4-yl)-6-methylpyrimidin-4-yl)amino)-5-morpholinO[2,3′-bipyridin]-6′-yl)acetamide] | ≥ 8.00 | –
CN1CCc2sc(-c3cnc(NC=O)cc3Nc3ccnc(C(C)(F)F)n3)nc2C1 [Example 796, N-(4-((2-(1,1-difluoroethyl)pyrimidin-4-yl)amino)-5-(5-methyl-4,5,6,7-tetrahydrothiazolo[4,5-c]pyridin-2-yl)pyridin-2-yl)formamide] | – | 7.00 to 8.00
CO[C@H]1C[C@H](Oc2cc(Nc3cc(NC(C)=O)ncc3-c3ccn(C)n3)nc(C(C)(F)F)c2)C1 [Example 148, N-(4-((6-(1,1-difluoroethyl)-4-((1r,3r)-3-methoxycyclobutoxy)pyridin-2-yl)amino)-5-(1-methyl-1H-pyrazol-3-yl)pyridin-2-yl)acetamide] | ≥ 8.00 | –
COc1cc(Nc2cc(NC(C)=O)ncc2-c2ccn(C)n2)nc(C(C)(F)F)c1 [Example 209, N-(4-((6-(1,1-difluoroethyl)-4-methoxypyridin-2-yl)amino)-5-(1-methyl-1H-pyrazol-3-yl)pyridin-2-yl)acetamide] | ≥ 8.00 | –
CC(=O)Nc1cc(Nc2cc(C)nc(C(C)(F)F)n2)c(OCCC(F)F)cn1 [Example 104, N-(4-((2-(1,1-difluoroethyl)-6-methylpyrimidin-4-yl)amino)-5-(3,3-difluoropropoxy)pyridin-2-yl)acetamide] | 7.00 to 8.00 | –
CC(=O)Nc1cc(Nc2cc(C)nc(C(C)(F)F)n2)c(OC[C@H]2COC(C)(C)O2)cn1 [Example 124, (S)-N-(4-((2-(1,1-difluoroethyl)-6-methylpyrimidin-4-yl)amino)-5-((2,2-dimethyl-1,3-dioxolan-4-yl)methoxy)pyridin-2-yl)acetamide] | ≥ 8.00 | –
CC(=O)Nc1cc(Nc2ccnc(C(C)(F)F)n2)c(-c2nc3c(s2)CN(C)C3)cn1 [Example 284, N-(4-((2-(1,1-difluoroethyl)pyrimidin-4-yl)amino)-5-(5-methyl-5,6-dihydro-4H-pyrrolo[3,4-d]thiazol-2-yl)pyridin-2-yl)acetamide] | 7.00 to 8.00 | –

Now from value to molecule:

pIC50 (MSD) | pIC50 | SMILES
7.00 to 8.00 | – | CC(=O)Nc1cc(Nc2cc(C)nc(C(C)(F)F)n2)c(-c2nn(C)cc2F)cn1 [Example 616, N-(4-((2-(1,1-difluoroethyl)-6-methylpyrimidin-4-yl)amino)-5-(4-fluorO1-methyl-1H-pyrazol-3-yl)pyridin-2-yl)acetamide]
6.00 to 7.00 | – | COc1nc(-c2cnc(NC(C)=O)cc2Nc2cc(C)nc(C(C)(F)F)n2)nn1C [Example 609, N-(4-((2-(1,1-difluoroethyl)-6-methylpyrimidin-4-yl)amino)-5-(5-methoxy-1-methyl-1H-1,2,4-triazol-3-yl)pyridin-2-yl)acetamide]
≥ 8.00 | – | CC(=O)Nc1cc(Nc2cc(C)nc(C(C)(F)F)n2)c(-c2ccc([C@H]3COCCN3C)cn2)cn1 (single isomer, unassigned) [Example 645, (S)-N-(4′-((2-(1,1-difluoroethyl)-6-methylpyrimidin-4-yl)amino)-5-(4-methylmorpholin-3-yl)-[2,3′-bipyridin]-6′-yl)acetamide or (R)-N-(4′-((2-(1,1-difluoroethyl)-6-methylpyrimidin-4-yl)amino)-5-(4-methylmorpholin-3-yl)-[2,3′-bipyridin]-6′-yl)acetamide]
≤ 6.00 | – | CC(=O)Nc1cc(Nc2cc(C)nc(C(C)(F)F)n2)c(-c2cc(N(C)C)cnn2)cn1 [Example 253, N-(4-((2-(1,1-difluoroethyl)-6-methylpyrimidin-4-yl)amino)-5-(5-(dimethylamino)pyridazin-3-yl)pyridin-2-yl)acetamide]
7.00 to 8.00 | – | COc1ccnc(COc2cnc(NC(C)=O)cc2Nc2cc(C)nc(C(C)(F)F)n2)c1 [Example 128, N-(4-((2-(1,1-difluoroethyl)-6-methylpyrimidin-4-yl)amino)-5-((4-methoxypyridin-2-yl)methoxy)pyridin-2-yl)acetamide]
– | ≥ 8.00 | CC(=O)Nc1cc(Nc2cc(C)nc(C(C)(F)F)n2)c(-c2ccc(P(C)(C)=O)cn2)cn1 [Example 916, N-(4′-((2-(1,1-difluoroethyl)-6-methylpyrimidin-4-yl)amino)-5-(dimethylphosphoryl)-[2,3′-bipyridin]-6′-yl)acetamide]
7.00 to 8.00 | – | CC(=O)Nc1cc(Nc2cc(C)nc(C(C)(F)F)n2)c(OCc2ccc(C)nc2)cn1 [Example 116, N-(4-((2-(1,1-difluoroethyl)-6-methylpyrimidin-4-yl)amino)-5-((6-methylpyridin-3-yl)methoxy)pyridin-2-yl)acetamide]
7.00 to 8.00 | – | CC(=O)Nc1cc(Nc2cc(C)nc(C(C)(F)F)n2)c(OCc2ccnc(F)c2)cn1 [Example 120, N-(4-((2-(1,1-difluoroethyl)-6-methylpyrimidin-4-yl)amino)-5-((2-fluoropyridin-4-yl)methoxy)pyridin-2-yl)acetamide]
≤ 6.00 | – | COc1nc(-c2cnc(NC(C)=O)cc2Nc2cc(C)nc(C(C)(F)F)n2)ncc1F [Example 659, N-(4-((2-(1,1-difluoroethyl)-6-methylpyrimidin-4-yl)amino)-5-(5-fluorO4-methoxypyrimidin-2-yl)pyridin-2-yl)acetamide]
≥ 8.00 | – | CC(=O)Nc1cc(Nc2cc(C)nc(C(C)(F)F)n2)c(-c2cc3n(n2)C(O)CN(C)C3)cn1 (stereo not shown) [Example 224, N-(4-((2-(1,1-difluoroethyl)-6-methylpyrimidin-4-yl)amino)-5-(7-hydroxy-5-methyl-4,5,6,7-tetrahydropyrazolo[1,5-a]pyrazin-2-yl)pyridin-2-yl)acetamide]
– | ≥ 8.00 | CCc1cc(Nc2cc(NC(C)=O)ncc2-c2ccc(CN3CCCC3)cn2)nc(C(C)(F)F)n1 [Example 901, N-(4′-((2-(1,1-difluoroethyl)-6-ethylpyrimidin-4-yl)amino)-5-(pyrrolidin-1-ylmethyl)-[2,3′-bipyridin]-6′-yl)acetamide]
≥ 8.00 | – | CC(=O)Nc1cc(Nc2cc(C)nc(C(C)(F)F)n2)c(-c2ccc3c(n2)CCOC3)cn1 [Example 679, N-(4-((2-(1,1-difluoroethyl)-6-methylpyrimidin-4-yl)amino)-5-(7,8-dihydrO5H-pyrano[4,3-b]pyridin-2-yl)pyridin-2-yl)acetamide]

Reference: patent publication US20260028365A1 (BIOGEN MA INC., priority 2022, published 2026)
